Nine compounds from patent publication US20260070945A1, “MACROCYCLIC IMMUNOMODULATORS” (Bristol-Myers Squibb Company, priority 2022, published 2026) can be followed below.

*1 amine or outer side, *2 acyl side, *3 side chain or, on linkers, in order; H or OH if unused. Where a SMILES comes first, the peptide text is derived from it. Bridges are numbered along the chain shown (N, C = ends). [ ]: non-standard residue; d: D form. The star is where a group is joined. ξ: configuration not given here. Phe(3-CF3) = N[C@@H](Cc1cccc(C(F)(F)F)c1)C(=O)O; Phe(4-COOH) = N[C@@H](Cc1ccc(C(=O)O)cc1)C(=O)O; Bip = N[C@@H](Cc1ccc(-c2ccccc2)cc1)C(=O)O; Phe(3-Me) = Cc1cccc(C[C@H](N)C(=O)O)c1; γGlu = O=C(O)[C@H](CCC(=O)[*:2])N[*:1]; Val(3-OH) = CC(C)(O)[C@H](N)C(=O)O; 4Pal = N[C@@H](Cc1ccncc1)C(=O)O; Cha = N[C@@H](CC1CCCCC1)C(=O)O; Cit = NC(=O)NCCC[C@H](N)C(=O)O; Thr(3ξ) = CC(O)[C@H](N)C(=O)O; Phg = N[C@H](C(=O)O)c1ccccc1; 12Ado = NCCCCCCCCCCCC(=O)O; 3Abz = Nc1cccc(C(=O)O)c1; Carboxymethyl = O=C(O)C*; NMeA = CN[C@@H](C)C(=O)O; Orn = NCCC[C@H](N)C(=O)O; Aun = NCCCCCCCCCCC(=O)O; Dab = NCC[C@H](N)C(=O)O; Dap = NC[C@H](N)C(=O)O; AEEA = NCCOCCOCC(=O)O

The first test deals with T1, PD-1/PD-L1 interaction (PE-labeled human PD-L1-Ig binding to Jurkat cell line over-expressing human PD-1) (Homo sapiens, UniProt Q15116).
T1 construct: expressed in transfected cells; host or cells: Jurkat
T1 sequence (Q15116 25-288): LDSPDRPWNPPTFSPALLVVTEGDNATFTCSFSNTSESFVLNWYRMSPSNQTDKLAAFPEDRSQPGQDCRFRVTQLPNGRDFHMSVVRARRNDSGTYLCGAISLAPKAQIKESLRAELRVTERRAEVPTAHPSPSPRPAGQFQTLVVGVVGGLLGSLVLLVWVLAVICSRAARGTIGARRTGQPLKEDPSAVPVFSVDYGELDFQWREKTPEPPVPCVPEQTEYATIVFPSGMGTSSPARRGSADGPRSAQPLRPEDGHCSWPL
As to the kind of experiment: Jurkat-PD-1 Cell Binding High-Content Screening Assay (CBA). As to conditions: Jurkat-hPD-1 cells, PE-labeled PD-L1-Ig 20 nM final; read-out: Jurkat HPD1 PDL1 IC50. A digest of the protocol: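 High-content imaging read-out of PE-PD-L1-Ig binding (20 nM final, 1 h) to Jurkat-hPD-1 cells, after 2 h compound exposure at 37 °C in DMEM with 10% FCS. Nuclei counterstained with Hoechst 33342 after paraformaldehyde fixation.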
One may read the IC50 as the point on the concentration scale where inhibition reaches its midpoint. For the compound `Cc1cccc(C[C@@H]2NC(=O)[C@H](CC(=O)O)NC(=O)[C@H](Cc3ccc(C(=O)O)cc3)NC(=O)[C@H](Cc3ccc(OCC(=O)O)cc3)NC(=O)CSC[C@@H](C(=O)NCC(=O)N[C@@H](CCC(=O)O)C(=O)NCCOCCOCC(=O)N[C@@H](CCC(=O)NCCCCCCCCCCC(=O)O)C(=O)O)NC(=O)[C@H](CO)NC(=O)[C@H](C(C)C)NC(=O)[C@H](CC(C)C)NC(=O)[C@H](CC(N)=O)NC(=O)[C@@H](CC(C)C)NC(=O)[C@H](C)N(C)C(=O)[C@H](C(C)C)NC(=O)[C@H](Cc3ccc(-c4ccccc4)cc3)NC(=O)[C@H](CC(C)C)NC2=O)c1` [Example 1013] ({CH2CO}-Y(Carboxymethyl)[Phe(4-COOH)]D[Phe(3-Me)]L[Bip]V[NMeA][dL]NLVSCGE[AEEA][γGlu][Aun]-OH; thioether N-14), the IC50 is 36.5 nM.

On to `Cc1cccc(C[C@@H]2NC(=O)[C@H](CC(=O)O)NC(=O)[C@H](Cc3ccc(OCC(=O)O)cc3)NC(=O)[C@H](CN)NC(=O)CSC[C@@H](C(=O)N[C@@H](CCCN)C(=O)N[C@@H](CO)C(=O)NCCCCCCCCCCCC(=O)O)NC(=O)[C@H](C(C)O)NC(=O)[C@H](C(C)C)NC(=O)[C@H](CC3CCCCC3)NC(=O)[C@H](CCN)NC(=O)[C@@H](CC(C)C)NC(=O)[C@H](C)N(C)C(=O)[C@H](CCCNC(N)=O)NC(=O)[C@H](Cc3ccc(-c4ccccc4)cc3)NC(=O)[C@H](C(C)C)NC2=O)c1` (stereo partly drawn) [Example 2413] ({CH2CO}-[Dap]Y(Carboxymethyl)D[Phe(3-Me)]V[Bip][Cit][NMeA][dL][Dab][Cha]V[Thr(3ξ)]C[Orn]S[12Ado]-OH; thioether N-14), for which the IC50 came out at 16.5 nM.

Turning to `CC(C)C[C@@H]1NC(=O)[C@H](Cc2c[nH]c3ccccc23)NC(=O)[C@H](CC(=O)O)NC(=O)[C@H](Cc2ccc(C(=O)O)cc2)NC(=O)[C@H](Cc2ccc(OCC(=O)O)cc2)NC(=O)CSC[C@@H](C(=O)NCCOCCOCC(=O)NCCCCCCCCCCC(=O)O)NC(=O)[C@H](CO)NC(=O)[C@H](C(C)C)NC(=O)[C@H](CC2CCCCC2)NC(=O)[C@H](CCN)NC(=O)[C@@H](CC(C)C)NC(=O)[C@H](C)N(C)C(=O)[C@H](Cc2ccc(O)cc2)NC(=O)[C@H](Cc2ccc(-c3ccccc3)cc2)NC1=O` [Example 2228] ({CH2CO}-Y(Carboxymethyl)[Phe(4-COOH)]DWL[Bip]Y[NMeA][dL][Dab][Cha]VSC[AEEA][Aun]-OH; thioether N-14), the IC50 is 52 nM.

For the compound `Cc1cccc(C[C@@H]2NC(=O)[C@H](CC(=O)O)NC(=O)[C@H](Cc3ccc(OCC(=O)O)cc3)NC(=O)[C@H](CCCNC(=N)N)NC(=O)CSC[C@@H](C(=O)NCCOCCOCC(=O)NCCCCCCCCCCC(=O)O)NC(=O)[C@H](C(C)O)NC(=O)[C@H](C(C)C)NC(=O)[C@H](CC3CCCCC3)NC(=O)[C@H](CCN)NC(=O)[C@@H](CC(C)C)NC(=O)[C@H](C)N(C)C(=O)[C@H](Cc3ccc(OCC(=O)O)cc3)NC(=O)[C@H](Cc3ccc(-c4ccccc4)cc3)NC(=O)[C@H](Cc3ccc(OCC(=O)O)cc3)NC2=O)c1` (stereo partly drawn) [Example 2342] ({CH2CO}-RY(Carboxymethyl)D[Phe(3-Me)]Y(Carboxymethyl)[Bip]Y(Carboxymethyl)[NMeA][dL][Dab][Cha]V[Thr(3ξ)]C[AEEA][Aun]-OH; thioether N-14), the IC50 was determined as 74.8 nM.

As to `CC(C)C[C@@H]1NC(=O)[C@H](Cc2c[nH]c3ccccc23)NC(=O)[C@H](CC(=O)O)NC(=O)[C@H](Cc2ccncc2)NC(=O)[C@H](Cc2ccc(OCC(=O)O)cc2)NC(=O)CSC[C@@H](C(=O)Nc2cccc(C(=O)NCCCCCCCCCCC(=O)O)c2)NC(=O)[C@H](CCN)NC(=O)[C@H](C(C)C)NC(=O)[C@H](CC2CCCCC2)NC(=O)[C@H](CCN)NC(=O)[C@@H](CC(C)C)NC(=O)[C@H](C)N(C)C(=O)[C@H](C(C)C)NC(=O)[C@H](Cc2ccc(-c3ccccc3)cc2)NC1=O` [Example 1217] ({CH2CO}-Y(Carboxymethyl)[4Pal]DWL[Bip]V[NMeA][dL][Dab][Cha]V[Dab]C[3Abz][Aun]-OH; thioether N-14), the IC50 was determined as 238 nM.

As for `Cc1cccc(C[C@@H]2NC(=O)[C@H](CC(=O)O)NC(=O)[C@H](Cc3ccc(C(=O)O)cc3)NC(=O)[C@H](CCN)NC(=O)CSC[C@@H](C(=O)N[C@@H](CCN)C(=O)NCCCCCCCCCCC(=O)O)NC(=O)[C@H](CO)NC(=O)[C@H](C(C)(C)O)NC(=O)[C@H](CC3CCCCC3)NC(=O)[C@H](CCN)NC(=O)[C@@H](CC(C)C)NC(=O)[C@H](C)N(C)C(=O)[C@H](Cc3ccc(OCC(=O)O)cc3)NC(=O)[C@H](Cc3ccc(-c4ccccc4)cc3)NC(=O)[C@H](c3ccccc3)NC2=O)c1` [Example 1292] ({CH2CO}-[Dab][Phe(4-COOH)]D[Phe(3-Me)][Phg][Bip]Y(Carboxymethyl)[NMeA][dL][Dab][Cha][Val(3-OH)]SC[Dab][Aun]-OH; thioether N-14), the IC50 was 96.9 nM.

Staying with this test, now noted: PE-labeled PD-L1-Ig 20 nM final, Jurkat-hPD-1 cells; read-out: Jurkat HPD1 PDL1 IC50.
Turning to `Cc1cccc(C[C@@H]2NC(=O)[C@H](CC(=O)O)NC(=O)[C@H](Cc3ccc(C(=O)O)cc3)NC(=O)[C@H](C(C)O)NC(=O)CSC[C@@H](C(=O)N[C@@H](CCN)C(=O)NCCOCCOCC(=O)NCCCCCCCCCCC(=O)O)NC(=O)[C@H](CCC(=O)O)NC(=O)[C@H](C(C)C)NC(=O)[C@H](CC3CCCCC3)NC(=O)[C@H](CCN)NC(=O)[C@@H](CC(C)C)NC(=O)[C@H](C)N(C)C(=O)[C@H](Cc3ccc(C(=O)O)cc3)NC(=O)[C@H](Cc3ccc(-c4ccccc4)cc3)NC(=O)[C@H](Cc3ccc(C(=O)O)cc3)NC2=O)c1` (stereo partly drawn) [Example 2547] ({CH2CO}-[Thr(3ξ)][Phe(4-COOH)]D[Phe(3-Me)][Phe(4-COOH)][Bip][Phe(4-COOH)][NMeA][dL][Dab][Cha]VEC[Dab][AEEA][Aun]-OH; thioether N-14), the IC50 is 14.9 nM.

As to `CC(C)C[C@H]1NC(=O)[C@H](C)N(C)C(=O)[C@H](Cc2ccc(OCC(=O)O)cc2)NC(=O)[C@H](Cc2ccc(-c3ccccc3)cc2)NC(=O)[C@H](Cc2ccc(C(=O)O)cc2)NC(=O)[C@H](Cc2cccc(C(F)(F)F)c2)NC(=O)[C@H](CC(=O)O)NC(=O)[C@H](Cc2ccc(OCC(=O)O)cc2)NC(=O)[C@H](C(C)O)NC(=O)CSC[C@@H](C(=O)N[C@@H](CCN)C(=O)NCCCCCCCCCCC(=O)O)NC(=O)[C@H](CCC(=O)O)NC(=O)[C@H](C(C)C)NC(=O)[C@H](CC2CCCCC2)NC(=O)[C@H](CCN)NC1=O` (stereo partly drawn) [Example 2574] ({CH2CO}-[Thr(3ξ)]Y(Carboxymethyl)D[Phe(3-CF3)][Phe(4-COOH)][Bip]Y(Carboxymethyl)[NMeA][dL][Dab][Cha]VEC[Dab][Aun]-OH; thioether N-14), the IC50 is 4.4 nM.

Regarding `Cc1cccc(C[C@@H]2NC(=O)[C@H](CC(=O)O)NC(=O)[C@H](Cc3ccc(OCC(=O)O)cc3)NC(=O)[C@H]([C@@H](C)O)NC(=O)CSC[C@@H](C(=O)NCC(=O)NCCOCCOCC(=O)NCCCCCCCCCCCC(=O)O)NC(=O)CNC(=O)[C@H](C(C)C)NC(=O)[C@H](CC3CCCCC3)NC(=O)[C@@H](CCC(=O)O)NC(=O)[C@@H](CC(C)C)NC(=O)[C@H](C)N(C)C(=O)[C@H](Cc3ccc(OCC(=O)O)cc3)NC(=O)[C@H](Cc3ccc(-c4ccccc4)cc3)NC(=O)[C@H](Cc3ccc(OCC(=O)O)cc3)NC2=O)c1` [Example 2688] ({CH2CO}-TY(Carboxymethyl)D[Phe(3-Me)]Y(Carboxymethyl)[Bip]Y(Carboxymethyl)[NMeA][dL][dE][Cha]VGCG[AEEA][12Ado]-OH; thioether N-14), the IC50 was determined as 54.5 nM.
